In ChEMBL document CHEMBL4706582, “Design, synthesis and molecular docking study of α-triazolylsialosides as non-hydrolyzable and potent CD22 ligands” (Eur J Med Chem, 2020):

Assays:
[1] = molecular target: T1, B-cell receptor CD22 (Homo sapiens, UniProt P20273); assay: Binding affinity to recombinant human CD22d1-3-Fc expressed in 293T cells by surface plasmon resonance assay; parameters: species or system HEK293T
T1 sequence (P20273 whole entry): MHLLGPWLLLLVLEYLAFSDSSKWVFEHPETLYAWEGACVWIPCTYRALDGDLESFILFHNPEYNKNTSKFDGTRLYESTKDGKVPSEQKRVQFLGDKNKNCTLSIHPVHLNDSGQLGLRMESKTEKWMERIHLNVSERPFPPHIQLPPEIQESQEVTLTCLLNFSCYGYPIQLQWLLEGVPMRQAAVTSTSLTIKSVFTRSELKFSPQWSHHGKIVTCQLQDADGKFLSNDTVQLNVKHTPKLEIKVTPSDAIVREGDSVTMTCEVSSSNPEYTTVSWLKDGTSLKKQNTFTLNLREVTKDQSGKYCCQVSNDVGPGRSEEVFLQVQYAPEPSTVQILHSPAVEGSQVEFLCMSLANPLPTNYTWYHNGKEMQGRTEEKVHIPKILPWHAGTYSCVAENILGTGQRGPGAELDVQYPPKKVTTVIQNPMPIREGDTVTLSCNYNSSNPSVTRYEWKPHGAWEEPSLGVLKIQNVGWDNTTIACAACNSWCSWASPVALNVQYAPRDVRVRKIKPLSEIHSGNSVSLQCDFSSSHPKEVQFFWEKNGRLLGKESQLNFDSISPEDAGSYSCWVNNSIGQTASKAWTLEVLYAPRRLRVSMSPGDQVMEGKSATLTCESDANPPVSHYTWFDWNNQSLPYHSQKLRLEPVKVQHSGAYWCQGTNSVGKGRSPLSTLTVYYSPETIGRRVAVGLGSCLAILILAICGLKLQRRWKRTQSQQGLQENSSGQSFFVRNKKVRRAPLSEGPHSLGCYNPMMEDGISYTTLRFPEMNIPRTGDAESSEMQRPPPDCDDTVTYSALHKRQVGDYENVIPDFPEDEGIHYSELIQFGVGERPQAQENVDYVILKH

[2] = molecular target: T2, Myelin-associated glycoprotein (Homo sapiens, UniProt P20916); assay: Binding affinity to human MAG by surface plasmon resonance assay
T2 sequence (P20916 whole entry): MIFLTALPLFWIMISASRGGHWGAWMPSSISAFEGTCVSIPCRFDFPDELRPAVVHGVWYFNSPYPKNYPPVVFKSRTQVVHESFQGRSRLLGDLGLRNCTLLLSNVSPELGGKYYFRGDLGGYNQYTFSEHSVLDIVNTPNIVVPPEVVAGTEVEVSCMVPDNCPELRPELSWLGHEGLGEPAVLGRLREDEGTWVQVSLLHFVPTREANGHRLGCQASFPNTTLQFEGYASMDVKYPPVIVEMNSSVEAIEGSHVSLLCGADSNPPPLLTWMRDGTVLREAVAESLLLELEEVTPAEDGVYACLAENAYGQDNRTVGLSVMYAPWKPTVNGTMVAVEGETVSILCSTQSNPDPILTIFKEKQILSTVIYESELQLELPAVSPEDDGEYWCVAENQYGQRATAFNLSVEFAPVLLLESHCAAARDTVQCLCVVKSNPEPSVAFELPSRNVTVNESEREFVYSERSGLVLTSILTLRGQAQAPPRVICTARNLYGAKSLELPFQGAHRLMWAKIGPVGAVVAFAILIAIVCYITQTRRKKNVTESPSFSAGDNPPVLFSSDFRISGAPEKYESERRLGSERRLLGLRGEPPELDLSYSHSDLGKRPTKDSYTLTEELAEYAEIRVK

[3] = species: Homo sapiens; assay: Selectivity index, ratio of Kd for human MAG to Kd for human CD22

| Compound | Kd [1] | Kd [2] | Selectivity Index [3] |
| --- | --- | --- | --- |
| O=C(Cc1ccc(-c2ccc(O)cc2)cc1)NC[C@@H](O)[C@@H](O)[C@@H]1O[C@](C(=O)O)(n2cc(COC3CCCCC3)nn2)C[C@H](O)[C@H]1NC(=O)CO | 860 nM |  |  |
| C#Cc1ccc(CO[C@]2(C(=O)O)C[C@H](O)[C@@H](NC(=O)CO)[C@H]([C@H](O)[C@H](O)CNC(=O)Cc3ccc(-c4ccc(O)cc4)cc3)O2)cc1 | 628 nM |  |  |
| O=C(Cc1ccc(-c2ccc(O)cc2)cc1)NC[C@@H](O)[C@@H](O)[C@@H]1O[C@](C(=O)O)(n2cc(Cc3ccccc3)nn2)C[C@H](O)[C@H]1NC(=O)CO | 952 nM |  |  |
| O=C(Cc1ccc(-c2ccc(O)cc2)cc1)NC[C@@H](O)[C@@H](O)[C@@H]1OC(OCc2ccccc2)(C(=O)O)CC(O)[C@H]1NC(=O)CO (single isomer, unassigned) | 458 nM | 56400 nM | 123 |
| O=C(CCCC[C@H]1SC[C@H]2NC(=O)N[C@H]21)NCCOCCOCCOCCn1cc(-c2ccc(CO[C@]3(C(=O)O)C[C@H](O)[C@@H](NC(=O)CO)[C@H]([C@H](O)[C@H](O)CNC(=O)Cc4ccc(-c5ccc(O)cc5)cc4)O3)cc2)nn1 | 740 nM |  |  |
| O=C(Cc1ccc(-c2ccc(O)cc2)cc1)NC[C@@H](O)[C@@H](O)[C@@H]1O[C@](C(=O)O)(n2cc(-c3ccc(-c4ccccc4)cc3)nn2)C[C@H](O)[C@H]1NC(=O)CO | 620 nM |  |  |
| O=C(Cc1ccc(-c2ccc(O)cc2)cc1)NC[C@@H](O)[C@@H](O)[C@@H]1O[C@](C(=O)O)(n2cc(-c3ccccc3)nn2)C[C@H](O)[C@H]1NC(=O)CO | 335 nM | 30700 nM | 91.6 |
| O=C(Cc1ccc(-c2ccc(O)cc2)cc1)NC[C@@H](O)[C@@H](O)[C@@H]1O[C@](C(=O)O)(n2cc(CC3CCCCC3)nn2)C[C@H](O)[C@H]1NC(=O)CO | 766 nM |  |  |
